Laboratory results: article PMC11963566, “A phase I, single-center, randomized, open-label, three-period crossover study to evaluate the drug–drug interaction between ZSP1273 and oseltamivir in healthy Chinese subjects” (Antimicrobial Agents and Chemotherapy, 2025)
Like-named read-outs stand apart in the source and are kept apart here.

Assays:
[1] = Safety assessment: adverse events (CTCAE 5.0, MedDRA 23.1) in healthy subjects; type: in vivo, human
Description: Safety assessment was conducted from the first administration of the investigational drug until the end of the trial. Safety indicators included adverse events (AEs), serious adverse events (SAEs), clinical laboratory tests (hematology, biochemistry, and urinalysis), vital signs, physical examination, and 12-lead electrocardiogram.
The severity of AE was assessed according to the CTCAE 5.0 standard and includes grades 1 to 5. Based on the criteria for determining causality between drugs and adverse events, the relationship was classified into five levels: definitely related, probably related, possibly related, probably not related, definitely not related. Among them, definitely related, probably related, and possibly related are defined as drug-related AEs.
Adverse events were coded using Med DRA 23.1 Chinese ([30]) and analyzed based on system organ class (SOC) and preferred term (PT). Adverse events during the treatment period, drug-related adverse events, and serious adverse events were described by frequency, number of cases (n), and incidence rate (%) according to SOC, PT, and the highest severity classification.

clinical = details: human; for AUC(0-inf): AUC0-∞,ss
[2] = SOC Gastrointestinal disorders, probably related
[3] = SOC General disorders and administration site conditions, possibly related
[4] = SOC Infections and infestations, probably not related
[5] = SOC Investigations, possibly related
[6] = SOC Investigations, probably not related
[7] = SOC Skin and subcutaneous tissue disorders, possibly related
[8] = healthy subjects, 5 days dosing
[9] = subjects with AUC_%Extrap >20.0% or Rsq <0.800 excluded

CCOC(=O)C1=C[C@@H](OC(CC)CC)[C@H](NC(C)=O)[C@@H](N)C1 [Oseltamivir, oseltamivir]
Gastrointestinal disorders (SOC): Cases (%) ([1]; AE by system organ class): 0 Cases (%)
Gastrointestinal disorders (SOC): Occurrences ([1]; AE by system organ class): 0
General disorders and administration site conditions (SOC): Cases (%) ([1]; AE by system organ class): 0 Cases (%)
General disorders and administration site conditions (SOC): Occurrences ([1]; AE by system organ class): 0
Infections and infestations (SOC): Cases (%) ([1]; AE by system organ class): 1 (2.9) Cases (%)
Infections and infestations (SOC): Occurrences ([1]; AE by system organ class): 1
Investigations (SOC): Cases (%) ([1]; AE by system organ class): 6 (17.6) Cases (%)
Investigations (SOC): Occurrences ([1]; AE by system organ class): 12
Skin and subcutaneous tissue disorders (SOC): Cases (%) ([1]; AE by system organ class): 1 (2.9) Cases (%)
Skin and subcutaneous tissue disorders (SOC): Occurrences ([1]; AE by system organ class): 1
Diarrhea: Cases (%) [1, 2]: 0 Cases (%)
Diarrhea: Occurrences [1, 2]: 0
Fever: Cases (%) [1, 3]: 0 Cases (%)
Fever: Occurrences [1, 3]: 0
Upper respiratory tract infection (URTI): Cases (%) [1, 4]: 1 (2.9) Cases (%)
Upper respiratory tract infection (URTI): Occurrences [1, 4]: 1
Decreased blood triglycerides: Cases (%) [1, 5]: 1 (2.9) Cases (%)
Decreased blood triglycerides: Occurrences [1, 5]: 1
Decreased high-density lipoprotein (HDL): Cases (%) [1, 5]: 2 (5.9) Cases (%)
Decreased high-density lipoprotein (HDL): Occurrences [1, 5]: 2
Decreased neutrophil count: Cases (%) [1, 5]: 0 Cases (%)
Decreased neutrophil count: Occurrences [1, 5]: 0
Increased blood cholesterol: Cases (%) [1, 5]: 0 Cases (%)
Increased blood cholesterol: Occurrences [1, 5]: 0
Increased blood creatinine: Cases (%) [1, 5]: 0 Cases (%)
Increased blood creatinine: Occurrences [1, 5]: 0
Increased blood triglycerides: Cases (%) [1, 5]: 1 (2.9) Cases (%)
Increased blood triglycerides: Occurrences [1, 5]: 1
Increased blood uric acid: Cases (%) [1, 5]: 1 (2.9) Cases (%)
Increased blood uric acid: Occurrences [1, 5]: 1
Increased gamma-glutamyl transferase (GGT): Cases (%) [1, 5]: 0 Cases (%)
Increased gamma-glutamyl transferase (GGT): Occurrences [1, 5]: 0
Increased lipase: Cases (%) [1, 5]: 0 Cases (%)
Increased lipase: Occurrences [1, 5]: 0
Increased low-density lipoprotein (LDL): Cases (%) [1, 5]: 0 Cases (%)
Increased low-density lipoprotein (LDL): Occurrences [1, 5]: 0
Crystals present in urine: Cases (%) [1, 6]: 1 (2.9) Cases (%)
Crystals present in urine: Occurrences [1, 6]: 1
Decreased hemoglobin: Cases (%) [1, 6]: 2 (5.9) Cases (%)
Decreased hemoglobin: Occurrences [1, 6]: 2
Increased urine specific gravity: Cases (%) [1, 6]: 1 (2.9) Cases (%)
Increased urine specific gravity: Occurrences [1, 6]: 1
Nitrites present in urine: Cases (%) [1, 6]: 1 (2.9) Cases (%)
Nitrites present in urine: Occurrences [1, 6]: 1
Positive urine occult blood: Cases (%) [1, 6]: 1 (2.9) Cases (%)
Positive urine occult blood: Occurrences [1, 6]: 1
Protein detected in urine: Cases (%) [1, 6]: 1 (2.9) Cases (%)
Protein detected in urine: Occurrences [1, 6]: 1
Acneiform dermatitis: Cases (%) [1, 7]: 1 (2.9) Cases (%)
Acneiform dermatitis: Occurrences [1, 7]: 1
Maculopapular rash: Cases (%) [1, 7]: 0 Cases (%)
Maculopapular rash: Occurrences [1, 7]: 0
increased blood triglycerides, incidence ([1]; drug-related adverse event): 2.9%
At least one treatment-emergent adverse event (TEAE): Cases (%) [1, 8]: 7 (20.6) Cases (%)
At least one treatment-emergent adverse event (TEAE): Occurrences [1, 8]: 14
At least one treatment-emergent adverse event related to drugs: Cases (%) [1, 8]: 5 (14.7) Cases (%)
At least one treatment-emergent adverse event related to drugs: Occurrences [1, 8]: 6
AUC0-t,ss, geometric mean ratio co-administration/monotherapy (human, in vivo): 92.7%
AUC0-τ,ss, geometric mean ratio co-administration/monotherapy (human, in vivo): 92.2%
AUC0-∞,ss, geometric mean ratio co-administration/monotherapy (human, in vivo): 92.6%
AUC0-∞,ss, intra-individual coefficient of variation (human, in vivo): 11.8%
Cmax,ss, geometric mean ratio co-administration/monotherapy (human, in vivo): 60.1%
decrease in Cmax,ss after co-administration (human, in vivo): 39.9%
CLss/F (human, in vivo, po): 459.8 ± 106.3 (23.1%) L/h
AUC0-∞,ss, geometric mean ratio co-administration/monotherapy [9]: 93.5%
AUC0-∞,ss, intra-individual coefficient of variation [9]: 10.7%
AUC(0-t) (clinical; in vivo, AUC0-t,ss, geometric mean): 170 ng·h/mL
AUC (clinical; in vivo, AUC0-τ,ss, geometric mean): 167 ng·h/mL
AUC(0-inf) (clinical; in vivo, geometric mean): 175 ng·h/mL
AUC(0-inf) (clinical; in vivo, geometric mean, monotherapy, subjects with AUC_%Extrap >20.0% or Rsq <0.800 excluded): 175 ng·h/mL
Cmax (clinical; in vivo, Cmax,ss, geometric mean): 91.2 ng/mL
Tmax (clinical; in vivo, po, Tmax,ss): 0.5 h
Vd/F (clinical; in vivo, po, Vz/F): 3070 L
half-life (clinical; in vivo, po, t1/2,ss): 4.5 ± 4.8 h
AUC(0-inf) (clinical; plasma, oral, geometric mean, co-administration ZSP1273 + oseltamivir, plasma, day 5, all subjects): 163 ng·h/mL
k el (clinical; plasma, po, 75 mg): 7.78e-05 s⁻¹
